Reference: patent US11098055B2, “Ester ACC inhibitors and uses thereof” (Gilead Apollo, LLC, priority 2015, dated 2021)
Converted amounts (≈) assume the structure as drawn. Read-outs that look alike come from different tables or passages of the source.

Key:
[1] = target: fACC2 (UniProt Q00955); experiment: In vitro ACC2 inhibition assay (ADP-Glo), fungal ACC2; type: biochemical
Procedure, shortened: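 ADP-Glo luminescent ADP detection with 5 nM ACC2, 20 μM ATP, 20 μM acetyl-CoA, 12 mM NaHCO3, 2 mM DTT, 5% DMSO; compound (30 μM-0.00051 μM, 11 points) preincubated 15 min, reaction 60 min at room temperature. Percent inhibition against DMSO and positive controls; IC50 by four-parameter nonlinear fit.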

[2] = test system: Botrtyis cinerea (Bc); experiment: Growth inhibition assay of fungal pathogens; type: cell-based; details: 48 h, read-out: Concentration at 90% Inhibition Bc
Procedure, shortened: (§1)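 Spores from sub-cultured plates were diluted in 17% V8 liquid medium and exposed to compound at final 50, 10 and 2 ppm or 2, 0.4 and 0.08 ppm with 2% DMSO. OD600 and visual ratings were taken at 24 and 48 h, blank-subtracted. Percent growth inhibition came from 48 h readings against the 2% DMSO control.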

[3] = test system: Septoria tritici (St); experiment: Growth inhibition assay of fungal pathogens; type: cell-based; details: Zymoseptoria tritici, 48 h, read-out: Concentration at 90% Inhibition St
Procedure, shortened: as §1

[4] = test system: Collectotrichum graminicola (Cg); experiment: Growth inhibition assay of fungal pathogens; type: cell-based; details: 48 h, read-out: Concentration at 90% Inhibition Cg
Procedure, shortened: as §1

[5] = test system: Diplodia maydis (Dm); experiment: Growth inhibition assay of fungal pathogens; type: cell-based; details: Stenocarpella maydis, 48 h, read-out: Concentration at 90% Inhibition Dm
Procedure, shortened: as §1

[6] = test system: Fusarium virguliforme (Fv); experiment: Growth inhibition assay of fungal pathogens; type: cell-based; details: 48 h, read-out: Concentration at 90% Inhibition Fv
Procedure, shortened: as §1

[7] = test system: Phytophthora capsici (Pc); experiment: Growth inhibition assay of fungal pathogens; type: cell-based; details: 48 h, read-out: Concentration at 90% Inhibition Pc
Procedure, shortened: as §1

[8] = test system: Fusarium moniliforme (Fm); experiment: Growth inhibition assay of fungal pathogens; type: cell-based; details: Fusarium verticillioides, 48 h, read-out: Concentration at 90% Inhibition Fm
Procedure, shortened: as §1

[9] = test system: Rhizoctonia solani (Rs); experiment: Growth inhibition assay of fungal pathogens; type: cell-based; details: 48 h, read-out: Concentration at 90% Inhibition Rs
Procedure, shortened: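 Percent growth inhibition is scored at 48 h, by OD600 (blank-subtracted) and visual rating against the 2% DMSO control. Compounds were tested at final 50, 10, 2 ppm or 2, 0.4, 0.08 ppm on pathogen spores diluted in 17% V8 medium; mycelial plugs in ¼ PDB were used for Rhizoctonia.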

Chain of fACC2 (Q00955 whole entry): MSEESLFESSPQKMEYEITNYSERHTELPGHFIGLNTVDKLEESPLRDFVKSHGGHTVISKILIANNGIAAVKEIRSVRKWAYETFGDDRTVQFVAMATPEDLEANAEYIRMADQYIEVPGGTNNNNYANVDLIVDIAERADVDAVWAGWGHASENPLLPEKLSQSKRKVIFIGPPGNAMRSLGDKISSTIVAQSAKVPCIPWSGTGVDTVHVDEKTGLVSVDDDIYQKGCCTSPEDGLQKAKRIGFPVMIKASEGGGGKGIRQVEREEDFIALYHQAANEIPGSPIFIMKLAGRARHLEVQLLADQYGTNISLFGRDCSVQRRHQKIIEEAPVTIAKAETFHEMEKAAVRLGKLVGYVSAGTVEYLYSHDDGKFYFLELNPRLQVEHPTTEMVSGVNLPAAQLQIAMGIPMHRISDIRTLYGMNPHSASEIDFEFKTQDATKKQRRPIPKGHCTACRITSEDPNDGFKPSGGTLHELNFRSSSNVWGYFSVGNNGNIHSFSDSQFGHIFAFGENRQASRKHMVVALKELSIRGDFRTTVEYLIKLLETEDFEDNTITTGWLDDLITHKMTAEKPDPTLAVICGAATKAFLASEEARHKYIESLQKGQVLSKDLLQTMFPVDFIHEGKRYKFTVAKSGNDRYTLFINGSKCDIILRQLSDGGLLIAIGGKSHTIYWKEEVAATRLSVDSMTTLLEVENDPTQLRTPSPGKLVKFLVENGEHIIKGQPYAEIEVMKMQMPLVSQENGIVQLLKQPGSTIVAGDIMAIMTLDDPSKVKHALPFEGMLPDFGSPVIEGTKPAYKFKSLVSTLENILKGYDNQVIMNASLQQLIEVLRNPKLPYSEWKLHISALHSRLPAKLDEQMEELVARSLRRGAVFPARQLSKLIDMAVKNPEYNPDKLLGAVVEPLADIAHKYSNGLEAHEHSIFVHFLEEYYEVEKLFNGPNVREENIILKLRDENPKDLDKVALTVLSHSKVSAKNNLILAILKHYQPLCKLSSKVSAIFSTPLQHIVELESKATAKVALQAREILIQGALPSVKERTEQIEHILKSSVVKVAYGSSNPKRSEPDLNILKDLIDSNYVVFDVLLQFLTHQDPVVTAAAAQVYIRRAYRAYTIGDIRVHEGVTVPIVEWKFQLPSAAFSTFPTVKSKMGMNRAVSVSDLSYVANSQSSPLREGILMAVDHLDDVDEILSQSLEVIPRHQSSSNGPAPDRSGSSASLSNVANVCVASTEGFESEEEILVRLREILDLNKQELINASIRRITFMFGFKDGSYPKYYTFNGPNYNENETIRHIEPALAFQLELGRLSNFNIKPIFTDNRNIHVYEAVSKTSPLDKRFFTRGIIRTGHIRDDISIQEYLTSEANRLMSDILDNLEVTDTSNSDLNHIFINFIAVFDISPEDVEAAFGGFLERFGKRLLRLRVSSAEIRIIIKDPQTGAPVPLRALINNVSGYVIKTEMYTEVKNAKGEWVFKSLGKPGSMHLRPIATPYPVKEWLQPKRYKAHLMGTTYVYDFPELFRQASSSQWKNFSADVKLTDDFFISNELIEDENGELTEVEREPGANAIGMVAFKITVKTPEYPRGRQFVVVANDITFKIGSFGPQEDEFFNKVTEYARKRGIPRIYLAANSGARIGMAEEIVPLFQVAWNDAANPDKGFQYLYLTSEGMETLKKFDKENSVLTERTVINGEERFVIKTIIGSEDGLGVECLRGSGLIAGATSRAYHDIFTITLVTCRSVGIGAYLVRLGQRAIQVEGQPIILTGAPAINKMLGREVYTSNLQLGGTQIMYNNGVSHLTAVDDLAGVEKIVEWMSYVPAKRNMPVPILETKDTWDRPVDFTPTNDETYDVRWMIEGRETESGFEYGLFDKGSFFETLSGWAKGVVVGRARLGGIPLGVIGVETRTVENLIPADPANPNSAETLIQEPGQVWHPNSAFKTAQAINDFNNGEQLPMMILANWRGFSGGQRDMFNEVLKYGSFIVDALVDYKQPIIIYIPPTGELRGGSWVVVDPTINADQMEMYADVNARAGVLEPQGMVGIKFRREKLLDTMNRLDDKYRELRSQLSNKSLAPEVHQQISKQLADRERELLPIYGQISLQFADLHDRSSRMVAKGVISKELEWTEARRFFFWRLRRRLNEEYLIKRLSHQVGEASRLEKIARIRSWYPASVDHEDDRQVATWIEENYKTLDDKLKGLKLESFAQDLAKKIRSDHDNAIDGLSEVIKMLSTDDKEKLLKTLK

| SMILES | IC50 ([1]; Table 2b (additional results)) [nM] | IC90 ([2]; Table 4b) [µg/mL] | IC90 ([3]; Table 4b) [µg/mL] | IC90 ([4]; Table 4b) [µg/mL] | IC90 ([5]; Table 4b) [µg/mL] | IC90 ([6]; Table 4b) [µg/mL] | IC90 ([7]; Table 4b) [µg/mL] | IC90 ([8]; Table 4b) [µg/mL] | IC90 ([9]; Table 4b) [µg/mL] | IC50 ([1]; Table 2a) [nM] | IC90 ([2]; Table 4a) [µg/mL] | IC90 ([3]; Table 4a) [µg/mL] | IC90 ([4]; Table 4a) [µg/mL] | IC90 ([5]; Table 4a) [µg/mL] | IC90 ([6]; Table 4a) [µg/mL] | IC90 ([7]; Table 4a) [µg/mL] | IC90 ([8]; Table 4a) [µg/mL] | IC90 ([9]; Table 4a) [µg/mL] |
| --- | --- | --- | --- | --- | --- | --- | --- | --- | --- | --- | --- | --- | --- | --- | --- | --- | --- | --- |
| CCOC(=O)c1sc2c(c1C)c(=O)n(C(C)(C)C(=O)NC(C)C)c(=O)n2C[C@H](OCC(C)(C)C#N)c1ccccc1OC [Compound I-38, ethyl (R)-1-(2-(2-cyano-2-methylpropoxy)-2-(2-methoxyphenyl)ethyl)-3-(1-(isopropylamino)-2-methyl-1-oxopropan-2-yl)-5-methyl-2,4-dioxo-1,2,3,4-tetrahydrothieno[2,3-d]pyrimidine-6-carboxylate] | 0.3 to 3 | 0.4 (≈ 0.653 µM) | ≥ 50 | 2 (≈ 3.26 µM) | 2 (≈ 3.26 µM) | 2 (≈ 3.26 µM) | ≥ 50 | 0.08 (≈ 0.131 µM) | 2 (≈ 3.26 µM) | – | – | – | – | – | – | – | – | – |
| CCOC(=O)c1sc2c(c1C)c(=O)n(C(C)(C)C(=O)NC(C)C)c(=O)n2C[C@H](OC(C)C)c1ccccc1OC [Compound I-9, (R)-ethyl 1-(2-isopropoxy-2-(2-methoxyphenyl)ethyl)-3-(1-(isopropylamino)-2-methyl-1-oxopropan-2-yl)-5-methyl-2,4-dioxo-1,2,3,4-tetrahydrothieno[2,3-d]pyrimidine-6-carboxylate] | 0.3 to 3 | 0.4 (≈ 0.697 µM) | ≥ 50 | 2 (≈ 3.49 µM) | 0.4 (≈ 0.697 µM) | 0.4 (≈ 0.697 µM) | ≥ 50 | 0.08 (≈ 0.139 µM) | 10 (≈ 17.4 µM) | 0.6 to 3 | 0.4 (≈ 0.697 µM) | ≥ 50 | 2 (≈ 3.49 µM) | 0.4 (≈ 0.697 µM) | 0.4 (≈ 0.697 µM) | ≥ 50 | 0.08 (≈ 0.139 µM) | ≥ 50 |
| CCOC(=O)c1sc2c(c1C)c(=O)n(C(C)(C)C(=O)NC(C)C)c(=O)n2C[C@H](OCCO)c1cc(F)ccc1OC [Compound I-18, (R)-ethyl 1-(2-(5-fluoro-2-methoxyphenyl)-2-(2-hydroxy-ethoxy)ethyl)-3-(1-(isopropylamino)-2-methyl-1-oxopropan-2-yl)-5-methyl-2,4-dioxo-1,2,3,4-tetrahydrothieno[2,3-d]pyrimidine-6-carboxylate] | – | 2 (≈ 3.37 µM) | ≥ 50 | 0.4 (≈ 0.674 µM) | 0.4 (≈ 0.674 µM) | 2 (≈ 3.37 µM) | ≥ 50 | 0.08 (≈ 0.135 µM) | 0.08 (≈ 0.135 µM) | 0.6 to 3 | 2 (≈ 3.37 µM) | ≥ 50 | 0.4 (≈ 0.674 µM) | 0.4 (≈ 0.674 µM) | 2 (≈ 3.37 µM) | ≥ 50 | 0.08 (≈ 0.135 µM) | 0.08 (≈ 0.135 µM) |
| CCOC(=O)c1sc2c(c1C)c(=O)n(C(C)(C)C(=O)N1CCCC1)c(=O)n2C[C@H](O)c1cc(F)ccc1OC [Compound I-22, (R)-ethyl 1-(2-(5-fluoro-2-methoxyphenyl)-2-hydroxyethyl)-5-methyl-3-(2-methyl-1-oxo-1-(pyrrolidin-1-yl)propan-2-yl)-2,4-dioxo-1,2,3,4-tetrahydrothieno[2,3-d]pyrimidine-6-carboxylate] | 0.3 to 3 | 2 (≈ 3.56 µM) | ≥ 50 | 10 (≈ 17.8 µM) | ≥ 50 | 2 (≈ 3.56 µM) | ≥ 50 | 2 (≈ 3.56 µM) | 0.08 (≈ 0.142 µM) | – | – | – | – | – | – | – | – | – |
| CCOC(=O)c1sc2c(c1C)c(=O)n([C@@H](C)C(=O)NC(C)C)c(=O)n2C[C@H](OCCC#N)c1cc(F)ccc1OC [Compound I-20, ethyl 1-((R)-2-(2-cyanoethoxy)-2-(5-fluoro-2-methoxy-phenyl)ethyl)-3-((S)-1-(isopropylamino)-1-oxopropan-2-yl)-5-methyl-2,4-dioxo-1,2,3,4-tetrahydrothieno[2,3-d]pyrimidine-6-carboxylate] | 0.3 to 3 | 2 (≈ 3.4 µM) | ≥ 50 | 10 (≈ 17 µM) | 10 (≈ 17 µM) | 10 (≈ 17 µM) | ≥ 50 | 0.4 (≈ 0.68 µM) | ≥ 50 | – | – | – | – | – | – | – | – | – |
| CCOC(=O)c1sc2c(c1C)c(=O)n([C@@H](C)C(=O)N1CCCC1)c(=O)n2C[C@H](OCCC#N)c1cc(F)ccc1OC [Compound I-23, ethyl 1-((R)-2-(2-cyanoethoxy)-2-(5-fluoro-2-methoxy-phenyl)ethyl)-5-methyl-2,4-dioxo-3-((S)-1-oxo-1-(pyrrolidin-1-yl)propan-2-yl)-1,2,3,4-tetrahydrothieno[2,3-d]pyrimidine-6-carboxylate] | 3 to 10 | 10 (≈ 16.6 µM) | ≥ 50 | ≥ 50 | 10 (≈ 16.6 µM) | ≥ 50 | ≥ 50 | 2 (≈ 3.33 µM) | 10 (≈ 16.6 µM) | – | – | – | – | – | – | – | – | – |
| CCOC(=O)c1sc2c(c1C)c(=O)n(C(C)(C)C(=O)NC(C)C)c(=O)n2C[C@H](OC[C@H](C)C#N)c1cc(F)ccc1OC [Compound I-34, ethyl 1-((R)-2-((R)-2-cyanopropoxy)-2-(5-fluoro-2-methoxyphenyl)ethyl)-3-(1-(isopropylamino)-2-methyl-1-oxopropan-2-yl)-5-methyl-2,4-dioxo-1,2,3,4-tetrahydrothieno[2,3-d]pyrimidine-6-carboxylate] | 0.3 to 3 | 0.4 (≈ 0.649 µM) | 2 (≈ 3.24 µM) | 0.08 (≈ 0.13 µM) | 0.4 (≈ 0.649 µM) | 0.4 (≈ 0.649 µM) | 10 (≈ 16.2 µM) | 0.08 (≈ 0.13 µM) | 0.08 (≈ 0.13 µM) | – | – | – | – | – | – | – | – | – |
| CCOC(=O)c1sc2c(c1C)c(=O)n(C(C)(C)C(=O)N1CCCC1)c(=O)n2C[C@H](OC1CCOCC1)c1ccccc1OC [Compound I-3, ethyl (R)-1-(2-(2-methoxyphenyl)-2-((tetrahydro-2H-pyran-4-yl)oxy)ethyl)-5-methyl-3-(2-methyl-1-oxo-1-(pyrrolidin-1-yl)propan-2-yl)-2,4-dioxo-1,2,3,4-tetrahydrothieno[2,3-d]pyrimidine-6-carboxylate] | 0.3 to 3 | 2 (≈ 3.19 µM) | ≥ 50 | 0.4 (≈ 0.637 µM) | 2 (≈ 3.19 µM) | 0.4 (≈ 0.637 µM) | ≥ 50 | 0.08 (≈ 0.127 µM) | 0.4 (≈ 0.637 µM) | 0.6 to 3 | 2 (≈ 3.19 µM) | ≥ 50 | 0.4 (≈ 0.637 µM) | 2 (≈ 3.19 µM) | 0.4 (≈ 0.637 µM) | ≥ 50 | 0.08 (≈ 0.127 µM) | 0.4 (≈ 0.637 µM) |
| CCOC(=O)c1sc2c(c1C)c(=O)n([C@H](C)C(=O)NC(C)C)c(=O)n2C[C@H](O)c1cc(F)ccc1OC [Compound I-43, ethyl 1-((R)-2-(5-fluoro-2-methoxyphenyl)-2-hydroxyethyl)-3-((R)-1-(isopropylamino)-1-oxopropan-2-yl)-5-methyl-2,4-dioxo-1,2,3,4-tetrahydrothieno[2,3-d]pyrimidine-6-carboxylate] | 0.3 to 3 | 2 (≈ 3.73 µM) | ≥ 50 | 10 (≈ 18.7 µM) | 10 (≈ 18.7 µM) | 0.4 (≈ 0.747 µM) | ≥ 50 | 0.08 (≈ 0.149 µM) | 2 (≈ 3.73 µM) | – | – | – | – | – | – | – | – | – |
| CCOC(=O)c1sc2c(c1C)c(=O)n(C(C)(C)C(=O)NC(C)C)c(=O)n2C[C@H](OCCOC)c1cc(F)ccc1OC [Compound I-11, (R)-ethyl 1-(2-(5-fluoro-2-methoxyphenyl)-2-(2-methoxy-ethoxy)ethyl)-3-(1-(isopropylamino)-2-methyl-1-oxopropan-2-yl)-5-methyl-2,4-dioxo-1,2,3,4-tetrahydrothieno[2,3-d]pyrimidine-6-carboxylate] | 0.3 to 3 | 2 (≈ 3.29 µM) | ≥ 50 | 2 (≈ 3.29 µM) | 2 (≈ 3.29 µM) | 0.4 (≈ 0.658 µM) | ≥ 50 | 0.08 (≈ 0.132 µM) | 10 (≈ 16.5 µM) | 0.6 to 3 | 2 (≈ 3.29 µM) | ≥ 50 | 2 (≈ 3.29 µM) | 2 (≈ 3.29 µM) | 0.4 (≈ 0.658 µM) | ≥ 50 | 0.08 (≈ 0.132 µM) | ≥ 50 |
| CCOC(=O)c1sc2c(c1C)c(=O)n([C@@H](C)C(=O)N(C)C(C)C)c(=O)n2C[C@H](OCCC#N)c1cc(F)ccc1OC [Compound I-28, ethyl 1-((R)-2-(2-cyanoethoxy)-2-(5-fluoro-2-methoxy-phenyl)-ethyl)-3-((S)-1-(isopropyl(methyl)amino)-1-oxopropan-2-yl)-5-methyl-2,4-dioxo-1,2,3,4-tetrahydrothieno[2,3-d]pyrimidine-6-carboxylate] | 0.3 to 3 | 2 (≈ 3.32 µM) | 10 (≈ 16.6 µM) | 10 (≈ 16.6 µM) | 10 (≈ 16.6 µM) | 0.4 (≈ 0.664 µM) | ≥ 50 | 0.4 (≈ 0.664 µM) | 0.08 (≈ 0.133 µM) | – | – | – | – | – | – | – | – | – |
